In data set [1] the test system is ER+ breast cancer models of ESR1-wild type and ESR1-mutation-bearing disease. Description: Xenograft models / ER+ breast cancer models.
A further data set has as its system frontline patients. The settings on record: NCT01602380; cited from earlier work.
The next data set deals with T1, ER (Homo sapiens, UniProt P03372).
T1 sequence (P03372 1-595): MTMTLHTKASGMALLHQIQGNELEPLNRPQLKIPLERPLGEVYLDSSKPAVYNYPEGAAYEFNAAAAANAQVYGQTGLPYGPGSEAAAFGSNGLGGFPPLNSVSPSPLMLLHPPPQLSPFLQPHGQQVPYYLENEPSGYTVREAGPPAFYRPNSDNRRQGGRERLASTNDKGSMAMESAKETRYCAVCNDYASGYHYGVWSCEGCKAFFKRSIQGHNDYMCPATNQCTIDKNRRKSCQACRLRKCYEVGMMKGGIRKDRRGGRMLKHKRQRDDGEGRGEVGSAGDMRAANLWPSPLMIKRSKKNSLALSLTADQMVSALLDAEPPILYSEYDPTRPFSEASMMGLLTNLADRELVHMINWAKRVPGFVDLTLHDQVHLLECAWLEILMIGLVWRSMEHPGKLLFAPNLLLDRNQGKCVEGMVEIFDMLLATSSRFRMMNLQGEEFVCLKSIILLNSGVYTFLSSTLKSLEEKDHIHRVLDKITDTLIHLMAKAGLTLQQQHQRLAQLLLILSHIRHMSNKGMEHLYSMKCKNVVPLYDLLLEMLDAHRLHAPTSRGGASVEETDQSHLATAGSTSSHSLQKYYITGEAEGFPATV
Description: Competition with estrogens for binding to the ER.

Data set [2] in a line: Human steady-state total drug exposure versus fulvestrant. The settings on record: GDC-9545 30 mg QD versus fulvestrant 500 mg IM monthly. The class given is in vivo.
Data set [3] relates to ER (wild-type and ESR1-mutant contexts). Description: In vitro cell and biochemical assays, potency versus fulvestrant.
The nature of data set [4]: Plasma protein binding / free concentration versus fulvestrant. The class given is in vitro ADME.
The test system of data set [5] is CDK4/6i-resistant breast cancer cell line. As to conditions: Iida et al. 2020; cited from earlier work.

The source of these data is patent US20230381156A1, “TREATMENT OF BREAST CANCER USING COMBINATION THERAPIES COMPRISING GDC-9545 AND IPATASERTIB” (Genentech, Inc., priority 2021, published 2023).

As to `C[C@]12CC[C@@H]3c4ccc(O)cc4C[C@@H](CCCCCCCCC[S+]([O-])CCCC(F)(F)C(F)(F)F)[C@H]3[C@@H]1CC[C@@H]2O` (stereo partly shown) [Fulvestrant, reference compound], the “efficacy in xenograft models compared with GDC-9545” value in data set [1] (fulvestrant dosed according to a clinically relevant dosing scheme) is on record as “less efficacious than GDC-9545”. Moreover, the “clinical benefit versus anastrozole” value in the data set on frontline patients was “benefit over anastrozole”.
Regarding `C[C@@H]1Cc2c([nH]c3ccccc23)[C@@H](c2c(F)cc(NC3CN(CCCF)C3)cc2F)N1CC(F)(F)CO` [GDC-9545, 3-((1R,3R)-1-(2,6-difluoro-4-((1-(3-fluoropropyl)azetidin-3-yl)amino)phenyl)-3-methyl-1,3,4,9-tetrahydro-2H-pyrido[3,4-b]indol-2-yl)-2,2-difluoropropan-1-ol], in data set [1] (ESR1-wild type and ESR1-mutation-bearing disease), the “nonclinical activity in ER+ breast cancer models” value is recorded as “robust nonclinical activity”. Also, the “potency of competition with estrogens for binding to the ER” value at ER is reported as “low nanomolar potency”. Also, in data set [2], the “human steady-state total drug exposure relative to fulvestrant” value is reported as “approximately 10 fold”. Also, in data set [3], the “potency relative to fulvestrant” value is “up to 10 times”. For the same molecule, in data set [4], the “free concentration compared with fulvestrant” value is “higher” and the “plasma protein binding compared with fulvestrant” value is on record as “lower”.
For `Cc1nc(NC(=O)N2CCC[C@H]2C(N)=O)sc1-c1ccnc(C(C)(C)C(F)(F)F)c1` [alpelisib], the “response of resistant cells in cell growth analysis” value in data set [5] is “remain responsive”.
As for `CO[C@H]1C[C@@H]2CC[C@@H](C)[C@@](O)(O2)C(=O)C(=O)N2CCCC[C@H]2C(=O)O[C@H]([C@H](C)C[C@@H]2CC[C@@H](OCCO)[C@H](OC)C2)CC(=O)[C@H](C)/C=C(\C)[C@@H](O)[C@@H](OC)C(=O)[C@H](C)C[C@H](C)/C=C/C=C/C=C/1C` [everolimus], the “response of resistant cells in cell growth analysis” value in data set [5] is reported as “remain responsive”.
